Data published in patent publication US9670261B2 (Sanofi, priority 2012, dated 2017).
*1 amine or outer side, *2 acyl side, *3 side chain or, on linkers, in order; H or OH if unused. Where a SMILES comes first, the peptide text is derived from it. Side-chain parts run from the residue outwards. [ ]: non-standard residue; d: D form. The star is where a group is joined. γGlu = O=C(O)[C@H](CCC(=O)[*:2])N[*:1]; Stearoyl = CCCCCCCCCCCCCCCCCC(=O)*; Aib = CC(C)(N)C(=O)O

Tests used:
[1] = system: non-fasted female diabetic dbdb-mice; assay: Glucose lowering in non-fasted female diabetic dbdb-mice; type: in vivo; conditions: 3 μg/kg s.c., at 240 min; baseline 20-22 mmol/l
Excerpt: Female diabetic dbdb-mice of mean non-fasted glucose value of 20-22 mmol/l and a body weight of 42 g+/−0.6 g (SEM) were used. Mice were individually marked and were adapted to housing conditions for at least one week.
3-5 days prior to study start mice were assigned to groups and cages (4 mice per cage, 8 per group) according to their non-fasted glucose values to ensure even distribution of lower and higher values between groups (stratification). On the study day, mice were weighed and dosed (t=0). Immediately prior to compound administration feed was removed while water remained available, and a first blood sample at a tail incision was drawn (baseline). Further blood samples were drawn at the tail incision at 30, 60, 90, 120, 240, 360, and 480 min.
Statistical analyses are performed with Everstat Version 6.0 based on SAS by 2-way-ANOVA on repeated measures, followed by Dunnett's post-hoc test against vehicle-control. Differences are considered statistically significant at the p<0.05 level.
Female dbdb-mice, received 3 μg/kg of SEQ ID NO: 14, SEQ ID NO: 21 or phosphate buffered saline (vehicle control) subcutaneously, at time 0 min.

[2] = Pharmacokinetic testing in mice, s.c.; conditions: mouse, plasma, sc, 1 mg/kg
Method: Mice were dosed 1 mg/kg subcutaneously (s.c.). The mice were sacrified and blood samples were collected after 0.25, 0.5, 1, 2, 4, 8, 16 and 24 hours post application. Plasma samples were analyzed after protein precipitation via liquid chromatography mass spectrometry (LC/MS). PK parameters and half-life were calculated using WinonLin Version 5.2.1 (non-compartment model).

[3] = Solubility testing in buffer (HPLC-UV); conditions: buffer
human GLP-1 receptor = molecular target: T1, human GLP-1 receptor (Homo sapiens, UniProt P43220); assay: cAMP response (HTRF) of HEK-293 cells stably expressing human GLP-1 receptor; type: cell-based; conditions: Table 7; cAMP formation; read-out: EC50 hGLP-1 R
T1 construct: expressed in transfected cells
T1 sequence (P43220 24-463): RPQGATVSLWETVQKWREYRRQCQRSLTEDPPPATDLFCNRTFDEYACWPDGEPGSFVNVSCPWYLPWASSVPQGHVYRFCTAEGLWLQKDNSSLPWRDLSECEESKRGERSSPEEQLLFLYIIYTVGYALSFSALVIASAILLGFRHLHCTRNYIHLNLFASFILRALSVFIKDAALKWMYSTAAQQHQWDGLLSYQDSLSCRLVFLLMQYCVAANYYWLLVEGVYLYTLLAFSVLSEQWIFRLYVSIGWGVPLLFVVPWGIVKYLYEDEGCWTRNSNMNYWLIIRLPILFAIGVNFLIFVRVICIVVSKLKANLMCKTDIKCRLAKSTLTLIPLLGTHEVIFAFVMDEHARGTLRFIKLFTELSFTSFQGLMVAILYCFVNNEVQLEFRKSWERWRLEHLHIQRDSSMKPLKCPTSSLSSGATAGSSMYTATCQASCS
Method in brief: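 Intracellular cAMP is quantified by HTRF following a 30-minute room-temperature incubation of cell suspensions (400000 cells/ml) with test compound in HBSS, 20 mM HEPES, 0.1% BSA and 2 mM IBMX.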

[4] = Chemical stability in solution, 7 days at 25° C. (% remaining peptide); conditions: % remaining peptide after 7 days at 25° C.
Method: After that time course, the sample was centrifuged for 20 min at 4000 rpm and the supernatant was analysed with HPLC-UV. For determination of the amount of the remaining peptide, the peak areas of the target compound at t0 and t7 were compared, resulting in “% remaining peptide”, following the equation % remaining peptide=[(peak area peptide t7)×100]/peak area peptide t0.
The chemical stability is expressed as “% remaining peptide”.

[5] = system: female diabetic dbdb-mice; assay: Glucose, HbA1c and oral glucose tolerance in diabetic dbdb-mice, chronic treatment (method 4); type: in vivo; conditions: for oral glucose tolerance: once daily s.c., oral glucose 2 g/kg in the 4th week; for reduction of AUC under the glucose curve compared to vehicle control: oral glucose tolerance test, p<0.05
Method: 8 week old, female diabetic dbdb-mice of mean non-fasted glucose value of 14.5 mmol/l and a body weight of 37-40 g were used. Mice were individually marked and were adapted to housing conditions for at least one week.
7 days prior to study start, baseline values for non-fasted glucose and HbA1c were determined, 5 days prior to study start, mice were assigned to groups and cages (5 mice per cage, 10 per group) according to their HbA1c values to ensure even distribution of lower and higher values between groups (stratification).
Mice were treated for 4 weeks, by once daily subcutaneous administration 3 hours prior to the dark phase (6 pm to 6 am). Blood samples from a tail tip incision were obtained for HbA1c on study day 21 and oral glucose tolerance was assessed in the 4th week. Oral glucose tolerance test was done in the morning without prior extra compound administration to majorly assess the effect of chronic treatment and less of acute compound administration. Mice were fasted for 4 hours prior to oral glucose administration (2 g/kg, t=0 min). Blood samples were drawn prior to glucose administration and at 15, 30, 60, 90, 120, and 180 min thereafter. Feed was returned after the last blood sampling. Results are represented as change from baseline, glucose in mmol/l and HbA1c in %.
Statistical analyses are performed with Everstat Version 6.0 based on SAS by 1-way-ANOVA, followed by Dunnett's post-hoc test against vehicle-control. Differences are considered statistically significant at the p<0.05 level.
Female dbdb-mice, received 3 and 10 μg/kg of SEQ ID NO: 16 and 10 μg/kg of SEQ ID NO: 21 or phosphate buffered saline (vehicle control) once daily, subcutaneously over four weeks.

[6] = system: female diet-induced obese (DIO) C57BL/6NCrl mice; assay: Body weight in DIO mice, 14 weeks of prefeeding with high-fat diet (method 2); type: in vivo
Method: Female C57BL/6NCrl mice were housed in groups in a specific pathogen-free barrier facility on a 12 h light/dark cycle with free access to water and high-fat diet. After 14 weeks on high-fat diet, mice were stratified to treatment groups (n=8), so that each group had similar mean body weight.
An aged-matched group with ad libitum access to standard chow and water was included as standard control group.
Before the experiment, mice were subcutaneously (s.c.) injected with vehicle solution and weighed for 3 days to acclimate them to the procedures.
Body weight was recorded daily.
Statistical analyses were performed with Everstat 6.0 by repeated measures two-way ANOVA and Dunnett's post-hoc analyses (glucose profile) and 1-way-ANOVA, followed by Dunnett's post-hoc test (body weight, body fat). Differences versus vehicle-treated DIO control mice were considered statistically significant at the p<0.05 level.
Female obese C57BL/6NCrl mice were treated for 3 weeks once daily subcutaneously in the late afternoon, prior the end of the light phase (12 h lights on) with 10 μg/kg SEQ ID NO: 9 and SEQ ID NO: 21 or vehicle. Body weight was recorded daily.

human GIP receptor = molecular target: T2, human GIP receptor (Homo sapiens, UniProt P48546); assay: cAMP response (HTRF) of HEK-293 cells stably expressing human GIP receptor; type: cell-based; conditions: Table 7; cAMP formation; read-out: EC50 hGIP R
T2 construct: expressed in transfected cells
T2 sequence (P48546 22-466): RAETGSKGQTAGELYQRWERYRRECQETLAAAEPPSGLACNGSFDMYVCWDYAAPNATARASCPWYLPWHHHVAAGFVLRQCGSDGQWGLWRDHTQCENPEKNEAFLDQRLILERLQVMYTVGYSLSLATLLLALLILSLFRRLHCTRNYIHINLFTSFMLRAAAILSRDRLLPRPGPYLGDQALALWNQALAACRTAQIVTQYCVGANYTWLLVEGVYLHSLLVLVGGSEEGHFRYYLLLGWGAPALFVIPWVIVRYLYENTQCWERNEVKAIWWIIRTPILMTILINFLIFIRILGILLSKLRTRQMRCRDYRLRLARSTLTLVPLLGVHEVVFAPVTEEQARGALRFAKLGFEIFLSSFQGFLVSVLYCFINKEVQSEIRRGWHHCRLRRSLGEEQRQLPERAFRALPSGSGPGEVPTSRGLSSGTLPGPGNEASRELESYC
Method: cAMP content of cells was determined using a kit from Cisbio Corp. (cat. no. 62AM4PEC) based on HTRF (Homogenous Time Resolved Fluorescence). For preparation, cells were split into T175 culture flasks and grown overnight to near confluency in medium (DMEM/10% FBS). Medium was then removed and cells washed with PBS lacking calcium and magnesium, followed by proteinase treatment with accutase (Sigma-Aldrich cat. no. A6964). Detached cells were washed and resuspended in assay buffer (1×HBSS; 20 mM HEPES, 0.1% BSA, 2 mM IBMX) and cellular density determined. They were then diluted to 400000 cells/ml and 25 μl-aliquots dispensed into the wells of 96-well plates. For measurement, 25 μl of test compound in assay buffer was added to the wells, followed by incubation for 30 minutes at room temperature.

[7] = Pharmacokinetic testing in Göttinger minipigs, s.c.; type: in vivo; conditions: female, minipig, plasma, sc, Mini pigs, 0.1 mg/kg s.c.
Method: Female Göttinger minipigs were dosed 0.1 mg/kg subcutaneously (s.c.). Blood samples were collected after 0.25, 0.5, 1, 2, 4, 8, 24, 32, 48, 56 and 72 hours post application. Plasma samples were analyzed after protein precipitation via liquid chromatography mass spectrometry (LC/MS). PK parameters and half-life were calculated using WinonLin Version 5.2.1 (non-compartment model).

## CCCCCCCCCCCCCCCCCC(=O)N[C@@H](CCC(=O)NCCCC[C@H](NC(=O)[C@H](CCC(N)=O)NC(=O)[C@@H](NC(=O)[C@H](CO)NC(=O)[C@H](CC(C)C)NC(=O)[C@H](CC(=O)O)NC(=O)[C@H](CO)NC(=O)[C@@H](NC(=O)[C@H](Cc1ccccc1)NC(=O)[C@@H](NC(=O)CNC(=O)[C@H](CCC(=O)O)NC(=O)C(C)(C)NC(=O)[C@@H](N)Cc1ccc(O)cc1)[C@@H](C)O)[C@@H](C)O)[C@@H](C)CC)C(=O)N[C@@H](CCC(=O)O)C(=O)N[C@@H](CCCCN)C(=O)N[C@@H](CCCNC(=N)N)C(=O)N[C@@H](C)C(=O)N[C@@H](C)C(=O)N[C@@H](CCC(N)=O)C(=O)N[C@@H](CCC(=O)O)C(=O)N[C@@H](Cc1ccccc1)C(=O)N[C@H](C(=O)N[C@@H](CCC(=O)O)C(=O)N[C@@H](Cc1c[nH]c2ccccc12)C(=O)N[C@@H](CC(C)C)C(=O)N[C@@H](CCCCN)C(=O)N[C@@H](C)C(=O)NCC(=O)NCC(=O)N1CCC[C@H]1C(=O)N[C@@H](CO)C(=O)N[C@@H](CO)C(=O)NCC(=O)N[C@@H](C)C(=O)N1CCC[C@H]1C(=O)N1CCC[C@H]1C(=O)N1CCC[C@H]1C(=O)N[C@@H](CO)C(N)=O)[C@@H](C)CC)C(=O)O [SEQ ID NO: 14, Y-Aib-E-G-T-F-T-S-D-L-S-I-Q-K(γE-x70)-EKRAAQEFIEWLKAGGPSSGAPPPS-NH2] (H-Y[Aib]EGTFTSDLSIQK([γGlu-Stearoyl])EKRAAQEFIEWLKAGGPSSGAPPPS-NH2)
[1]
  maximal effect on glucose, change from baseline: -8 mmol/L
[2]
  Cmax: 5340 ng/mL
  half-life: 2.8 h
[3]; pH 4.5
  solubility at 2 h: > 1000 µg/mL
[3]; pH 7.4
  solubility at 2 h: > 1000 µg/mL
Human GLP-1 receptor
  EC50: 4.3 pM
[4]; pH 4.5
  Stability (pH 4.5): 96.0%
[4]; pH 7.4
  Stability (pH 7.4): 94.0%

## CCCCCCCCCCCCCCCCCC(=O)N[C@@H](CCC(=O)N[C@@H](CCC(=O)NCCCC[C@H](NC(=O)[C@H](CCC(N)=O)NC(=O)[C@@H](NC(=O)[C@H](CO)NC(=O)[C@H](CC(C)C)NC(=O)[C@H](CC(=O)O)NC(=O)[C@H](CO)NC(=O)[C@@H](NC(=O)[C@H](Cc1ccccc1)NC(=O)[C@@H](NC(=O)CNC(=O)[C@H](CCC(=O)O)NC(=O)C(C)(C)NC(=O)[C@@H](N)Cc1ccc(O)cc1)[C@@H](C)O)[C@@H](C)O)[C@@H](C)CC)C(=O)N[C@@H](CCC(=O)O)C(=O)N[C@@H](CCCCN)C(=O)N[C@@H](CCCNC(=N)N)C(=O)N[C@@H](C)C(=O)N[C@@H](C)C(=O)NC(C)(C)C(=O)N[C@@H](CCC(=O)O)C(=O)N[C@@H](Cc1ccccc1)C(=O)N[C@H](C(=O)N[C@@H](CCC(=O)O)C(=O)N[C@@H](Cc1c[nH]c2ccccc12)C(=O)N[C@@H](CC(C)C)C(=O)N[C@@H](CCCCN)C(=O)N[C@@H](CC(N)=O)C(=O)N[C@H](C(=O)NCC(=O)N1CCC[C@H]1C(=O)N[C@@H](CO)C(=O)N[C@@H](CO)C(=O)NCC(=O)N[C@@H](C)C(=O)N1CCC[C@H]1C(=O)N1CCC[C@H]1C(=O)N1CCC[C@H]1C(=O)N[C@@H](CO)C(N)=O)[C@@H](C)O)[C@@H](C)CC)C(=O)O)C(=O)O [SEQ ID NO: 16, Y-Aib-E-G-T-F-T-S-D-L-S-I-Q-K(γE-γE-x70)-E-K-R-A-A-Aib-E-F-I-E-W-L-K-N-T-G-P-S-S-G-A-P-P-P-S-NH2] (H-Y[Aib]EGTFTSDLSIQK([γGlu-γGlu-Stearoyl])EKRAA[Aib]EFIEWLKNTGPSSGAPPPS-NH2)
[2]
  Cmax: 3460 ng/mL
  half-life: 5.3 h
Human GLP-1 receptor
  EC50: 4 pM
[5]
  oral glucose tolerance: improved oral glucose tolerance
  reduction of AUC under the glucose curve compared to vehicle control: reached statistical significance

## CCCCCCCCCCCCCCCCCC(=O)N[C@@H](CCC(=O)NCCCC[C@H](NC(=O)[C@H](CCC(N)=O)NC(=O)[C@@H](NC(=O)[C@H](CO)NC(=O)[C@H](CC(C)C)NC(=O)[C@H](CC(=O)O)NC(=O)[C@H](CO)NC(=O)[C@@H](NC(=O)[C@H](Cc1ccccc1)NC(=O)[C@@H](NC(=O)CNC(=O)[C@H](CCC(=O)O)NC(=O)C(C)(C)NC(=O)[C@@H](N)Cc1ccc(O)cc1)[C@@H](C)O)[C@@H](C)O)[C@@H](C)CC)C(=O)N[C@@H](CCC(=O)O)C(=O)N[C@@H](CO)C(=O)N[C@@H](CCCNC(=N)N)C(=O)N[C@@H](C)C(=O)N[C@@H](C)C(=O)N[C@@H](CCC(N)=O)C(=O)N[C@@H](CCC(=O)O)C(=O)N[C@@H](Cc1ccccc1)C(=O)N[C@H](C(=O)N[C@@H](CCC(=O)O)C(=O)N[C@@H](Cc1c[nH]c2ccccc12)C(=O)N[C@@H](CC(C)C)C(=O)N[C@@H](CCCCN)C(=O)N[C@@H](C)C(=O)NCC(=O)NCC(=O)N1CCC[C@H]1C(=O)N[C@@H](CO)C(=O)N[C@@H](CO)C(=O)NCC(=O)N[C@@H](C)C(=O)N1CCC[C@H]1C(=O)N1CCC[C@H]1C(=O)N1CCC[C@H]1C(=O)N[C@@H](CO)C(N)=O)[C@@H](C)CC)C(=O)O [SEQ ID NO: 21, Y-Aib-E-G-T-F-T-S-D-L-S-I-Q-K(γE-x70)-ESRAAQEFIEWLKAGGPSSGAPPPS-NH2] (H-Y[Aib]EGTFTSDLSIQK([γGlu-Stearoyl])ESRAAQEFIEWLKAGGPSSGAPPPS-NH2)
[6]; 10 μg/kg s.c. once daily, 3 weeks
  decrease of body weight, relative change from baseline: ≤ 18.0%
[6]; 10 μg/kg, 3-week treatment, mean ± SEM
  Overall weight change: -7.3 ± 0.7 g
[1]
  maximal effect, glucose reduction: 10 to 12 mmol/L
[2]
  Cmax: 5050 ng/mL
  half-life: 4 h
Human GIP receptor
  EC50: 6.4 pM
[7]
  Cmax: 479 ng/mL
  half-life: 19.1 h
[5]
  oral glucose tolerance: improved oral glucose tolerance
  reduction of AUC under the glucose curve compared to vehicle control: reached statistical significance
